The values that follow come from PubChem BioAssay AID1845217 (Molecular Pharmacology Branch, DTP, NCI, 2023).

In the assay the test system is VA-ES-BJ tumor spheroid viability. The assay can be described thus: Anticancer human tumor VA-ES-BJ cell line growth inhibition.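 For all read-outs here: spheroids exposed to compounds for seven days.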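 For viability, T/C: percent of DMSO vehicle control viability so 100% = untreated growth.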 As to conditions: spheroids with HUVEC and MSC; for viability, T/C: stronger effect = lower value. The method, boiled down:
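Complex tumor spheroids combined malignant cells with endothelial cells and mesenchymal stem cells. DNA-damaging drugs and DNA repair inhibitors were tested alone and in combination, at half-log dilutions down from clinical Cmax (top 10 microM if Cmax unknown), 0.25% DMSO final.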

Several values for one entry are separate records, joined by “and”; a condition that tells them apart may be missing. Equal entries are not always repeated.

As a reminder, the IC50 is the midpoint of a concentration-inhibition curve. As a reminder, the viability, T/C is the result in the treated group divided by that in the control group, in per cent. `COc1cc(C)[nH]c(=O)c1CN1CCc2c(Cl)cc(C(OC)C3COC3)c(Cl)c2C1=O` (stereo unspecified) + Cn1nnc2c(C(N)=O)ncn2c1=O: the IC50 is 9570 nM (curve of first compound, second compound 1 µM); > 10000 nM (curve of first compound, second compound 3.16 µM); 3260 nM (curve of first compound, second compound 10 µM); 3360 nM (curve of first compound, second compound 31.6 µM); 2220 nM (curve of first compound, second compound 100 µM). Also, the viability, T/C was 94% (second compound 1 µM, first compound 0.0316 µM); 88.8% (second compound 1 µM, first compound 0.1 µM); 72.2% (second compound 1 µM, first compound 0.316 µM); 61.4% (second compound 1 µM, first compound 1 µM); 54% (second compound 1 µM, first compound 3.16 µM); 49% (second compound 1 µM, first compound 10 µM). Besides, the viability, T/C is 97.6% (second compound 3.16 µM, first compound 0.0316 µM); 85.8% (second compound 3.16 µM, first compound 0.1 µM); 70.8% (second compound 3.16 µM, first compound 0.316 µM); 60.3% (second compound 3.16 µM, first compound 1 µM); 56.1% (second compound 3.16 µM, first compound 3.16 µM); 49.5% (second compound 3.16 µM, first compound 10 µM). Moreover, the viability, T/C reads like this: (second compound 10 µM, first compound 0.0316 µM) 89%; (second compound 10 µM, first compound 0.1 µM) 87.2%; (second compound 10 µM, first compound 0.316 µM) 71.6%; (second compound 10 µM, first compound 1 µM) 58.4%; (second compound 10 µM, first compound 3.16 µM) 52.4%; (second compound 10 µM, first compound 10 µM) 45.2%. In addition, the viability, T/C is 95.5% (second compound 31.6 µM, first compound 0.0316 µM); 85.4% (second compound 31.6 µM, first compound 0.1 µM); 68.9% (second compound 31.6 µM, first compound 0.316 µM); 56.8% (second compound 31.6 µM, first compound 1 µM); 51.9% (second compound 31.6 µM, first compound 3.16 µM); 46% (second compound 31.6 µM, first compound 10 µM). Besides, the viability, T/C is, setting by setting: (second compound 100 µM, first compound 0.0316 µM) 106%; (second compound 100 µM, first compound 0.1 µM) 90.2%; (second compound 100 µM, first compound 0.316 µM) 75.1%; (second compound 100 µM, first compound 1 µM) 53.8%; (second compound 100 µM, first compound 3.16 µM) 48.7%; (second compound 100 µM, first compound 10 µM) 42.7%.

In the case of `COc1cc2c(cc1O)CCNC21CSC2c3c(OC(C)=O)c(C)c4c(c3C(COC1=O)N1C(O)C3Cc5cc(C)c(OC)c(O)c5C(C21)N3C)OCO4` (stereo unspecified), the viability, T/C is 2.96% [middle of 10 runs] (compound 0.000949 µM) and 1.18% [middle of 9 runs] (compound 0.003 µM). Further, the IC50 (compound alone, run of 12/12/2019) was 0.256 nM [middle of 10 runs].

For `CC1COCCN1c1cc(-c2ccnn2C)c2ccnc(-c3ccn[nH]3)c2n1` (stereo unspecified), the viability, T/C reads like this: (compound 0.0316 µM) 9.71% and 87.1% and 84.4%; (compound 0.316 µM) 9.14% and 23.2% and 30.3%; (compound 1 µM) 5.45% and 9.1% and 11%; (compound 3.16 µM) 5.18% and 6.34% and 6.93%; (compound 10 µM) 4.89% and 6.26% and 6.35%. Further, for the setting “curve of compound”, the IC50 is < 31.6 nM and 110 nM and 153 nM.

Turning to `COc1ccc([C@@H](O)c2cc(-c3ncnc4cc(N5CCOCC5)ccc34)c(F)cc2Cl)nn1` + COc1cc2c(cc1O)CCNC21CSC2c3c(OC(C)=O)c(C)c4c(c3C(COC1=O)N1C(O)C3Cc5cc(C)c(OC)c(O)c5C(C21)N3C)OCO4, the IC50 runs as follows: (curve of first compound, second compound 30 pM) 857 nM; (curve of first compound, second compound 94.9 pM) 510 nM; (curve of first compound, second compound 0.0003 µM) 102 nM; (curve of first compound, second compound 0.000949 µM) < 31.6 nM; (curve of first compound, second compound 0.003 µM) < 31.6 nM. Also, the viability, T/C (second compound 30 pM, first compound 0.0316 µM) is 124%; the viability, T/C (second compound 30 pM, first compound 0.1 µM) was 112%; the viability, T/C (second compound 30 pM, first compound 0.316 µM) was 90.3%; the viability, T/C (second compound 30 pM, first compound 1 µM) is 43.8%; the viability, T/C (second compound 30 pM, first compound 3.16 µM) is 15.9%; the viability, T/C (second compound 30 pM, first compound 10 µM) is 10.5%. The viability, T/C reads like this: (second compound 94.9 pM, first compound 0.0316 µM) 111%; (second compound 94.9 pM, first compound 0.1 µM) 108%; (second compound 94.9 pM, first compound 0.316 µM) 64.1%; (second compound 94.9 pM, first compound 1 µM) 29.1%; (second compound 94.9 pM, first compound 3.16 µM) 15%; (second compound 94.9 pM, first compound 10 µM) 11.4%. For the same molecule, the viability, T/C runs as follows: (second compound 0.0003 µM, first compound 0.0316 µM) 59.6%; (second compound 0.0003 µM, first compound 0.1 µM) 51.3%; (second compound 0.0003 µM, first compound 0.316 µM) 30.5%; (second compound 0.0003 µM, first compound 1 µM) 14%; (second compound 0.0003 µM, first compound 3.16 µM) 3.86%; (second compound 0.0003 µM, first compound 10 µM) 0.36%. Further, the viability, T/C by setting is: (second compound 0.000949 µM, first compound 0.0316 µM) 3.29%; (second compound 0.000949 µM, first compound 0.1 µM) 3.11%; (second compound 0.000949 µM, first compound 0.316 µM) 1.76%; (second compound 0.000949 µM, first compound 1 µM) 0.36%; (second compound 0.000949 µM, first compound 3.16 µM) 1.07%; (second compound 0.000949 µM, first compound 10 µM) 2.57%. In addition, the viability, T/C by setting is: (second compound 0.003 µM, first compound 0.0316 µM) 2.08%; (second compound 0.003 µM, first compound 0.1 µM) 3.06%; (second compound 0.003 µM, first compound 0.316 µM) 2.71%; (second compound 0.003 µM, first compound 1 µM) 4.43%; (second compound 0.003 µM, first compound 3.16 µM) 5.13%; (second compound 0.003 µM, first compound 10 µM) 6.09%.

`Cc1sc2c(c1C)C(c1ccc(Cl)cc1)=NC(CC(=O)Nc1ccc(O)cc1)c1nnc(C)n1-2` (stereo unspecified): the viability, T/C is 72.1% and 86.4% and 77.2% (compound 0.00949 µM); 66.8% and 59.2% and 64.1% (compound 0.03 µM); 47.3% and 45% and 46.2% (compound 0.0949 µM); 30.5% and 32.6% and 28.8% (compound 0.3 µM); 25.7% and 24.2% and 20.7% (compound 0.949 µM); 18.6% and 22.5% and 15.8% (compound 3 µM). For the same molecule, the IC50 (curve of compound) was 84.1 nM and 60.9 nM and 73.1 nM.
